Values joined by “and” are separate entries in the source; they are usually repeats but may differ in a detail not shown here. Identical values can stand only once.
Assays:
[1] = Plasma concentrations during 7-day oral dosing in beagle dogs; type: in vivo; conditions: Group 3: Compound 1 1.5 mg/kg/day PO + fesoterodine fumarate 3 mg/kg/day PO
[2] = Plasma pharmacokinetics after single-dose intravenous administration in rats; type: in vivo, Sprague Dawley rats; conditions: for AUClast of desfesoterodine / C0 of desfesoterodine: IV
Method: The plasma concentration-time profile was evaluated for fesoterodine active metabolite desfesoterodine and Compound 1 in male Sprague Dawley rats following single-dose intravenous administration of fesoterodine (0.25 mg/kg) and Compound 1 (0.5 mg/kg and 1.5 mg/kg) alone and single-dose co-administration. Plasma exposures of desfesoterodine were similar following administration of fesoterodine alone and in combination with Compound 1.

[3] = Single ascending dose study: pharmacokinetics (plasma, CSF); type: in vivo; conditions: Group 2, fesoterodine fumarate 8 mg 4 hours prior to 40 mg Compound 1
Method: Compound 1 was administered in a single ascending dose (SAD) study conducted in approximately 54 healthy adult volunteers to investigate Compound 1 pharmacokinetics, safety, and tolerability. The study was conducted in two groups.
Group 2 evaluated tolerability of Compound 1 at Group 1 MTD with or without fesoterodine fumarate co-administration. Subjects received 8 mg of fesoterodine fumarate tablet or matched placebo tablet 4 hours prior to administration of 40 mg of Compound 1.

[4] = Fesoterodine: 0.25 + Compound 1: 0.5 mg/kg
[5] = Fesoterodine: 0.25 + Compound 1: 1.5 mg/kg

CC(C)N(CCC(c1ccccc1)c1cc(CO)ccc1O)C(C)C (stereo not shown) [desfesoterodine, 5-hydroxymethyl tolterodine]
Plasma concentration of desfesoterodine, Mean ([1]; Day 1, 0.500 h): 111 ng/mL
Plasma concentration of desfesoterodine, individual animals D3001-D3005 ([1]; Day 1, 0.500 h): 154 ng/mL and 58.0 ng/mL and 257 ng/mL and 35.9 ng/mL and 52.4 ng/mL
Plasma concentration of desfesoterodine, Mean ([1]; Day 1, 0.750 h): 100 ng/mL
Plasma concentration of desfesoterodine, individual animals D3001-D3005 ([1]; Day 1, 0.750 h): 136 ng/mL and 35.1 ng/mL and 203 ng/mL and 64.7 ng/mL and 61.3 ng/mL
Plasma concentration of desfesoterodine, Mean ([1]; Day 1, 1.00 h): 66.6 ng/mL
Plasma concentration of desfesoterodine, individual animals D3001-D3005 ([1]; Day 1, 1.00 h): 96.0 ng/mL and 30.6 ng/mL and 149 ng/mL and 15.8 ng/mL and 41.5 ng/mL
Plasma concentration of desfesoterodine, Mean ([1]; Day 1, 2.00 h): 36.0 ng/mL
Plasma concentration of desfesoterodine, individual animals D3001-D3005 ([1]; Day 1, 2.00 h): 32.4 ng/mL and 17.2 ng/mL and 74.2 ng/mL and 10.7 ng/mL and 45.5 ng/mL
Plasma concentration of desfesoterodine, Mean ([1]; Day 1, 4.00 h): 9.29 ng/mL
Plasma concentration of desfesoterodine, individual animals D3001-D3005 ([1]; Day 1, 4.00 h): 7.08 ng/mL and 3.69 ng/mL and 17.0 ng/mL and 5.38 ng/mL and 13.3 ng/mL
Plasma concentration of desfesoterodine, Mean ([1]; Day 1, 8.00 h): 2.78 ng/mL
Plasma concentration of desfesoterodine, individual animals D3001-D3005 ([1]; Day 1, 8.00 h): 1.41 ng/ml and 4.22 ng/ml and 3.82 ng/ml and BQL and 1.67 ng/ml
Plasma concentration of desfesoterodine, individual animals D3001-D3005 ([1]; Day 1, 24.0 h): BQL
Plasma concentration of desfesoterodine, individual animals D3001-D3005 ([1]; Day 7, 0.00 h): BQL
Plasma concentration of desfesoterodine, Mean ([1]; Day 7, 0.250 h): 183 ng/mL
Plasma concentration of desfesoterodine, individual animals D3001-D3005 ([1]; Day 7, 0.250 h): 29.1 ng/mL and 60.6 ng/mL and 407 ng/mL and 149 ng/mL and 270 ng/mL
Plasma concentration of desfesoterodine, Mean ([1]; Day 7, 0.500 h): 201 ng/mL
Plasma concentration of desfesoterodine, individual animals D3001-D3005 ([1]; Day 7, 0.500 h): 103 ng/mL and 77.7 ng/mL and 318 ng/mL and 197 ng/mL and 311 ng/mL
Plasma concentration of desfesoterodine, Mean ([1]; Day 7, 0.750 h): 148 ng/mL
Plasma concentration of desfesoterodine, individual animals D3001-D3005 ([1]; Day 7, 0.750 h): 84.3 ng/mL and 66.4 ng/mL and 294 ng/mL and 102 ng/mL and 191 ng/mL
Plasma concentration of desfesoterodine, Mean ([1]; Day 7, 1.00 h): 128 ng/mL
Plasma concentration of desfesoterodine, individual animals D3001-D3005 ([1]; Day 7, 1.00 h): 73.5 ng/mL and 64.7 ng/mL and 224 ng/mL and 105 ng/mL and 175 ng/mL
Plasma concentration of desfesoterodine, Mean ([1]; Day 7, 2.00 h): 80.5 ng/mL
Plasma concentration of desfesoterodine, individual animals D3001-D3005 ([1]; Day 7, 2.00 h): 45.8 ng/mL and 42.6 ng/mL and 149 ng/mL and 63.2 ng/mL and 102 ng/mL
Plasma concentration of desfesoterodine, Mean ([1]; Day 7, 4.00 h): 40.2 ng/mL
Plasma concentration of desfesoterodine, individual animals D3001-D3005 ([1]; Day 7, 4.00 h): 52.2 ng/mL and 15.2 ng/mL and 61.6 ng/mL and 31.6 ng/mL and 40.5 ng/mL
Plasma concentration of desfesoterodine, Mean ([1]; Day 7, 8.00 h): 5.93 ng/mL
Plasma concentration of desfesoterodine, individual animals D3001-D3005 ([1]; Day 7, 8.00 h): 10.6 ng/mL and 3.92 ng/mL and 8.16 ng/mL and 2.93 ng/mL and 4.06 ng/mL
Plasma concentration of desfesoterodine, individual animals D3001-D3005 ([1]; Day 7, 24.0 h): BQL
AUClast of desfesoterodine ([2]; Fesoterodine: 0.25 mg/kg alone): 15.41 ng·h/mL
C0 of desfesoterodine ([2]; Fesoterodine: 0.25 mg/kg alone): 27.09 ng/mL
AUClast of desfesoterodine [2, 4]: 13.05 ng·h/mL
C0 of desfesoterodine [2, 4]: 34.63 ng/mL
AUClast of desfesoterodine [2, 5]: 13.73 ng·h/mL
C0 of desfesoterodine [2, 5]: 38.71 ng/mL
plasma exposures of desfesoterodine, fesoterodine alone vs in combination with Compound 1 ([2]; fesoterodine 0.25 mg/kg IV, rats): similar
mean desfesoterodine concentration in CSF at 1hour after administration of compound 1 [3]: 121.44 pg/mL

Source: patent publication US20250032460A1, “METHODS OF TREATING NEUROLOGICAL DISORDERS” (MapLight Therapeutics, Inc., priority 2021, published 2025)
